What was measured:
ABUTH [1] = assay: Pre-emergence herbicidal action against ABUTH; type: in vivo, Abutilon theophrasti
Method in brief: (§1)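 Herbicidal effect was assessed 3 weeks after treatment by visual comparison with untreated controls, 100% denoting dead plants. Aqueous WP or EC preparations had been applied at 600 to 800 l/ha with 0.2% wetting agent to the soil covering freshly sown seeds.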

ALOMY [2] = assay: Pre-emergence herbicidal action against ALOMY; type: in vivo, Alopecurus myosuroides
Method in brief: as §1

AMARE [3] = assay: Pre-emergence herbicidal action against AMARE; type: in vivo, Amaranthus retroflexus
Method in brief: as §1

ECHCG [4] = assay: Pre-emergence herbicidal action against ECHCG; type: in vivo, Echinochloa crus-galli
Method in brief: as §1

LOLRI = assay: Pre-emergence herbicidal action against LOLRI; type: in vivo, Lolium rigidum; settings: 80 g/ha
Method in brief: as §1

MATIN [5] = assay: Pre-emergence herbicidal action against MATIN; type: in vivo, Matricaria inodora
Method in brief: as §1

PHBPU [6] = assay: Pre-emergence herbicidal action against PHBPU; type: in vivo, Pharbitis purpurea
Method in brief: as §1

POLCO = assay: Pre-emergence herbicidal action against POLCO; type: in vivo, Polygonum convolvulus; settings: dosage 80 g/ha
Method in brief: as §1

SETVI = assay: Pre-emergence herbicidal action against SETVI; type: in vivo, Setaria viridis
Method in brief: as §1

VERPE [7] = assay: Pre-emergence herbicidal action against VERPE; type: in vivo, Veronica persica
Method in brief: as §1

VIOTR [8] = assay: Pre-emergence herbicidal action against VIOTR; type: in vivo, Viola tricolor
Method in brief: as §1

DIGSA = assay: Pre-emergence herbicidal action against DIGSA; type: in vivo, Digitaria sanguinalis
Method in brief: as §1

ABUTH [9] = assay: Post-emergence herbicidal action against ABUTH; type: in vivo, Abutilon theophrasti; settings: visual assessment about 3 weeks after treatment vs untreated controls
Method in brief: (§2)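 Herbicidal effect was scored visually in percent after about 3 weeks in the greenhouse. Plants had been raised in sandy loam and treated post-emergence at the one-leaf stage with formulated compound at 600 to 800 l/ha water plus 0.2% wetting agent.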

ALOMY [10] = assay: Post-emergence herbicidal action against ALOMY; type: in vivo, Alopecurus myosuroides; settings: visual assessment about 3 weeks after treatment vs untreated controls
Method in brief: as §2

AMARE [11] = assay: Post-emergence herbicidal action against AMARE; type: in vivo, Amaranthus retroflexus; settings: 20 g/ha, visual assessment about 3 weeks after treatment, 100% = plants have died, 0% = like control plants
Method in brief: as §2

ECHCG [12] = assay: Post-emergence herbicidal action against ECHCG; type: in vivo, Echinochloa crus-galli
Method in brief: as §2

MATIN [13] = assay: Post-emergence herbicidal action against MATIN; type: in vivo, Matricaria inodora
Method in brief: as §2

VERPE [14] = assay: Post-emergence herbicidal action against VERPE; type: in vivo, Veronica persica; settings: 20 g/ha
Method in brief: as §2

VIOTR [15] = assay: Post-emergence herbicidal action against VIOTR; type: in vivo, Viola tricolor; settings: Viola tricolor, 504 h, 20 g/ha
Method in brief: as §2

AVEFA = assay: Pre-emergence herbicidal action against AVEFA; type: in vivo, Avena fatua
Method in brief: as §1

PHBPU [16] = assay: Post-emergence herbicidal action against PHBPU; type: in vivo, Pharbitis purpurea
Method in brief: as §2

[17] = Tripleurospermum inodorum, 504 h, dosage 20 g/ha
[18] = 80 g/ha, scored visually after 3 weeks vs untreated controls (100% = plants have died, 0% = like control plants)
[19] = 20 g/ha, scored visually after 3 weeks, 100% = plants have died, 0% = like control plants

## CCCNC(=O)c1c(C(F)(F)F)ccc(C(=O)Nc2nnnn2C)c1C [Example 1-32]
ABUTH [1]; Abutilon theophrasti, 504 h, 80 g/ha, scored visually after 3 weeks vs untreated controls (100% = plants have died, 0% = like control plants)
  pest or weed control at 80 g/ha: 100%
ABUTH [1]; Abutilon theophrasti, 504 h, dosage 20 g/ha, scored visually after 3 weeks vs untreated controls, 100% = plants have died, 0% = like control plants, read-out: Pre-emergence action against ABUTH (herbicidal activity in percent)
  pest or weed control at 20 g/ha: 100%
ALOMY [2]; Alopecurus myosuroides, 504 h, 80 g/ha, pre-emergence, scored visually after 3 weeks vs untreated controls (100% = plants have died, 0% = like control plants)
  pest or weed control at 80 g/ha: 100%
ALOMY [2]; Alopecurus myosuroides, pre-emergence, 504 h, 20 g/ha, scored visually after 3 weeks, 100% = plants have died, 0% = like control plants
  pest or weed control at 20 g/ha: 80%
AMARE [3]; Amaranthus retroflexus, 504 h, 20 g/ha, scored visually after 3 weeks vs untreated controls, 100% = plants have died, 0% = like control plants
  pest or weed control at 20 g/ha: 100%
AMARE [3]; Amaranthus retroflexus, 504 h, 80 g/ha, scored visually after 3 weeks vs untreated controls, 100% = plants have died, 0% = like control plants
  pest or weed control at 80 g/ha: 100%
ECHCG [4]; Echinochloa crus-galli, 504 h, 20 g/ha
  pest or weed control at 20 g/ha: 80%
ECHCG [4]; Echinochloa crus-galli, 504 h, 80 g/ha
  pest or weed control at 80 g/ha: 100%
LOLRI; Lolium rigidum, 504 h
  pest or weed control at 80 g/ha: 90%
MATIN [5]; [17]
  pest or weed control at 20 g/ha: 100%
MATIN [5]; Tripleurospermum inodorum, 504 h, dosage 80 g/ha
  pest or weed control at 80 g/ha: 100%
PHBPU [6]; Ipomoea purpurea, 504 h, dosage 80 g/ha
  pest or weed control at 80 g/ha: 80%
POLCO; Fallopia convolvulus, 504 h
  pest or weed control at 80 g/ha: 100%
SETVI; Setaria viridis, 504 h, dosage 80 g/ha
  pest or weed control at 80 g/ha: 100%
VERPE [7]; Veronica persica, 504 h, dosage 20 g/ha
  pest or weed control at 20 g/ha: 80%
VERPE [7]; Veronica persica, 504 h, dosage 80 g/ha
  pest or weed control at 80 g/ha: 100%
VIOTR [8]; Viola tricolor, 504 h, dosage 80 g/ha
  pest or weed control at 80 g/ha: 100%
DIGSA; Digitaria sanguinalis, 504 h, dosage 20 g/ha
  pest or weed control at 20 g/ha: 100%
DIGSA; Digitaria sanguinalis, 504 h, dosage 80 g/ha
  pest or weed control at 80 g/ha: 100%
ABUTH [9]; Abutilon theophrasti, 504 h, dosage 5 g/ha
  pest or weed control at 5 g/ha: 90%
ABUTH [9]; Abutilon theophrasti, 504 h, dosage 20 g/ha
  pest or weed control at 20 g/ha: 90%
ALOMY [10]; Alopecurus myosuroides, 504 h, dosage 5 g/ha
  pest or weed control at 5 g/ha: 80%
ALOMY [10]; Alopecurus myosuroides, 504 h, dosage 20 g/ha
  pest or weed control at 20 g/ha: 90%
AMARE [11]; Amaranthus retroflexus, 504 h
  pest or weed control at 20 g/ha: 90%
ECHCG [12]; Echinochloa crus-galli, 504 h, dosage 20 g/ha
  pest or weed control at 20 g/ha: 90%
MATIN [13]; Tripleurospermum inodorum, 504 h, dosage 5 g/ha
  pest or weed control at 5 g/ha: 80%
MATIN [13]; [17]
  pest or weed control at 20 g/ha: 90%
VERPE [14]; Veronica persica, 504 h
  pest or weed control at 20 g/ha: 90%
VIOTR [15]
  pest or weed control at 20 g/ha: 80%

## CCn1nnnc1NC(=O)c1ccc(C(F)(F)F)c(C(=O)NC2CCC2)c1C [Example 2-42]
ABUTH [1]; [18]
  Pre-emergence action against ABUTH (herbicidal activity): 100%
ABUTH [1]; dosage 20 g/ha, scored visually after 3 weeks vs untreated controls, 100% = plants have died, 0% = like control plants
  Pre-emergence action against ABUTH (herbicidal activity in percent): 100%
ALOMY [2]; [19]
  Pre-emergence action against ALOMY: 80%
ALOMY [2]; 80 g/ha, pre-emergence, scored visually after 3 weeks vs untreated controls (100% = plants have died, 0% = like control plants)
  Pre-emergence action against ALOMY (herbicidal activity): 90%
AMARE [3]; 20 g/ha, scored visually after 3 weeks vs untreated controls, 100% = plants have died, 0% = like control plants
  Pre-emergence action against AMARE in %: 100%
AMARE [3]; [18]
  Pre-emergence action against AMARE in %: 100%
AVEFA; [19]
  Pre-emergence action against AVEFA: 80%
AVEFA; 80 g/ha, pre-emergence
  Pre-emergence action against AVEFA in %: 90%
ECHCG [4]; 20 g/ha
  Pre-emergence action against ECHCG in %: 90%
ECHCG [4]; 80 g/ha
  Pre-emergence action against ECHCG in %: 100%
LOLRI
  Pre-emergence action against LOLRI in %: 80%
MATIN [5]; dosage 20 g/ha
  Pre-emergence action against MATIN in %: 100%
MATIN [5]; dosage 80 g/ha
  Pre-emergence action against MATIN in %: 100%
PHBPU [6]; dosage 20 g/ha
  Pre-emergence action against PHBPU in %: 80%
PHBPU [6]; dosage 80 g/ha
  Pre-emergence action against PHBPU in %: 90%
POLCO
  Pre-emergence action against POLCO in %: 80%
SETVI; dosage 20 g/ha
  Pre-emergence action against SETVI in %: 80%
SETVI; dosage 80 g/ha
  Pre-emergence action against SETVI in %: 100%
VERPE [7]; dosage 80 g/ha
  Pre-emergence action against VERPE in %: 90%
VIOTR [8]; dosage 20 g/ha
  Pre-emergence action against VIOTR in %: 100%
VIOTR [8]; dosage 80 g/ha
  Pre-emergence action against VIOTR in %: 100%
DIGSA; dosage 20 g/ha
  Pre-emergence action against DIGSA in %: 100%
DIGSA; dosage 80 g/ha
  Pre-emergence action against DIGSA in %: 100%
ABUTH [9]; dosage 5 g/ha
  Post-emergence action against ABUTH in %: 80%
ABUTH [9]; dosage 20 g/ha
  Post-emergence action against ABUTH in %: 90%
ALOMY [10]; dosage 5 g/ha
  Post-emergence action against ALOMY in %: 90%
ALOMY [10]; dosage 20 g/ha
  Post-emergence action against ALOMY in %: 100%
AMARE [11]
  Post-emergence action at 20 g/ha against AMARE in %: 100%
ECHCG [12]; dosage 5 g/ha
  Post-emergence action against ECHCG in %: 90%
ECHCG [12]; dosage 20 g/ha
  Post-emergence action against ECHCG in %: 100%
MATIN [13]; dosage 20 g/ha
  Post-emergence action against MATIN in %: 80%
PHBPU [16]; dosage 5 g/ha
  Post-emergence action against PHBPU in %: 90%
PHBPU [16]; dosage 20 g/ha
  Post-emergence action against PHBPU in %: 90%
VERPE [14]
  Post-emergence action against VERPE in %: 90%

Reference: US12655116B2, “Substituted isophthalic acid diamides” (Bayer Aktiengesellschaft, priority 2020, dated 2026)
